Experimental data taken from PMC11875992 (Cancer research, 2025).

Columns and labels:
KRAS G12C = KRAS G12C (Homo sapiens, UniProt P01116, G12C); assay: cellular thermal stability assay; assay type: cell-based
KRAS G13D = KRAS G13D (Homo sapiens, UniProt P01116, G13D); assay: cellular thermal stability assay in HCT-116 lysates, western blot; assay type: biochemical
Chain of KRAS G13D (P01116 2-186 G13D): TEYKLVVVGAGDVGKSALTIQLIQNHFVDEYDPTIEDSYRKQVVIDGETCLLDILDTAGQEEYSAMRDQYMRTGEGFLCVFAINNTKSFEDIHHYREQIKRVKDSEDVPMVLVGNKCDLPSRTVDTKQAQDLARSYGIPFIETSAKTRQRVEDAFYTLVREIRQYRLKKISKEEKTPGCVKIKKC

Chain of KRAS G12C (P01116 2-186 G12C): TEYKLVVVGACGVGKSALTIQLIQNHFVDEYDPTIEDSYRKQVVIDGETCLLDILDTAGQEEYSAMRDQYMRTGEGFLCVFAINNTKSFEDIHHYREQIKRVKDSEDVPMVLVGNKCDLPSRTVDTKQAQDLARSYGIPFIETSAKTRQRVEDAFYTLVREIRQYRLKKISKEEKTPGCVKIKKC

EC50 (KRAS G12C): 8.49 nM
EC50 (KRAS G13D): 0.45 nM
SMILES: COc1cc(/C=C2/C(C)=C(CC(=O)NCc3ccco3)c3cc(F)ccc32)cc(OC)c1O [ADT-007, (Z)-2-(5-fluoro-1-(4-hydroxy-3,5-dimethoxybenzylidene)-2-methyl-1H-inden-3-yl)-N-(furan-2-ylmethyl)acetamide]
